Consider one substance from patent US11471481B2, “Rapid-deposition thin-film forming compositions as effective wound care treatment” (priority 2016, dated 2022).

Where two headings read alike, the source gives them in different places.

In one series the test system is human skin fibroblast. As to conditions: cited from earlier work.
Series [1] is described as follows: Solubility of PVP-I in different organic solvents. The format is physicochemical. Here is the method: PVP-I is a polymer complex soluble in water.
To make PVP-I liquid bandage solutions to form rapid-deposition film on skin surface, low boiling-point volatile solvents were selected to study solubility of PVP-I and the time required for the solvent to evaporate to dryness. […] When ethanol alone was the solvent, the drying time was 3 minutes 27 seconds. A mixed solvent has even shorter drying time. Particularly, when the mixed solvent contains acetone and isopentane (which have low boiling points), drying time had been shortened to less than 2 minutes, as the mixed solvents could form azeotropes, which was easier to evaporate. Isopentane had some irritation to skin, and thus its dosage could not be too high. From the study, dosage greater than 15% of isopentane could not shorten the drying time, but instead increase the skin irritation. n-Pentane is not used because of its pungent smell. Therefore, after a preliminary study, ethanol, ethyl acetate, acetone and isopentane alone or combinations were chosen as the solvent phase in this invention.

With Povidone iodine [PVP-I], the Fibroblast growth entry was “progressively retarded” in the series with human skin fibroblast (0.01% and 0.025% PVP-I solutions); “totally inhibited” with human skin fibroblast (0.1% and 1% PVP-I solutions). Also, in series [1] (ethanol), the “Solubility of PVP-I in ethanol” value is given as “readily soluble”. Moreover, the “Solubility of PVP-I in ethyl acetate, acetone, isopentane and n-pentane” value in series [1] (ethyl acetate, acetone, isopentane, n-pentane) is on record as “insoluble”.
